From patent US8580747B2, “Cyclic natriuretic peptide constructs” (Palatin Technologies, Inc., priority 2006, dated 2013)
Where two headings read alike, the source gives them in different places. Bridge positions count the residues as written; N and C are the ends. Square brackets hold non-standard residues; d marks the D form. Peptide text beside a SMILES is read from it. * marks the point of attachment. Piperazin2one(3S-Bu,6R-CO) = CCCC[C@@H]1NC[C@H](C(=O)*)NC1=O; X2 = N=C(N)NCCC[C@@H]1C(=O)N[C@@H](C(N)=O)CN1*; X1 = N=C(N)NCCC[C@H]1C(=O)N[C@@H](C(N)=O)CN1*; X3 = CC(C)C[C@@H]1NC[C@H](C(=O)*)NC1=O; dNle = CCCC[C@@H](N)C(=O)O; Heptanoyl = CCCCCCC(=O)*; Nle = CCCC[C@H](N)C(=O)O; Orn = NCCC[C@H](N)C(=O)O

Assays:
[1] = rat, in vivo, sc, 1 mg/kg
[2] = target: T1, NEP (neutral endopeptidase) (Homo sapiens, UniProt P08473); test: hNEP resistance assay (digestion by neutral endopeptidase); assay type: in vitro ADME; conditions: pH 7.4
T1 construct: purchased R&D Systems, Minneapolis, Minn; 1182-ZN
T1 sequence (P08473 52-750 limits assumed): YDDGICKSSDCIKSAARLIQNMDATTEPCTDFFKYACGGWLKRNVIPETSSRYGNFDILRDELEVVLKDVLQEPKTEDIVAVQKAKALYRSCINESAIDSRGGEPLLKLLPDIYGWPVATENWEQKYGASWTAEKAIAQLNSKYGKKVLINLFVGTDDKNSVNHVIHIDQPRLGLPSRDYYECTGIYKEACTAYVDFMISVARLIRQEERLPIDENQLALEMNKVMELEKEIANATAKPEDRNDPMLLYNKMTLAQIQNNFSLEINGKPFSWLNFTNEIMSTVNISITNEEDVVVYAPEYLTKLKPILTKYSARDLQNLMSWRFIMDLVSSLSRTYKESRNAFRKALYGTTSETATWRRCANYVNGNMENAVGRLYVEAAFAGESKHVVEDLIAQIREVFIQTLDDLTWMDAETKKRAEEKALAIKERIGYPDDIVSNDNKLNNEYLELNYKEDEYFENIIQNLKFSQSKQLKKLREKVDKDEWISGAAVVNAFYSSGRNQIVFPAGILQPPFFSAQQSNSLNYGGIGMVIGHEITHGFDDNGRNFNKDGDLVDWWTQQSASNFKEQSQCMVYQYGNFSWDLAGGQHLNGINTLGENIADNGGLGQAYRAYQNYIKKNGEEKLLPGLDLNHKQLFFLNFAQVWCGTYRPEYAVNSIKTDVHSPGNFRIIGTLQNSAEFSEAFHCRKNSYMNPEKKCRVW
Description: NEP resistance of various constructs of the invention was evaluated using the following experimental procedure. All constructs were diluted in 0.1 M Tris-HCL buffer (pH 7.4) to 100 μM. 40 μL of diluted constructs were added to each tube and all tubes were kept on ice. 40 μL of diluted NEP, either human recombinant NEP (R&D Systems, Minneapolis, Minn., catalogue #1182-ZN) at 8 ng/μL or mouse NEP (R&D Systems, catalog #1126-ZN) at 2.5 ng/μL, was added to each tube. The tubes were mixed gently and spun. […] At the end of the incubation time, the reaction was stopped by adding 5 μL of 10% TFA. […] The extent to which NEP was active against the constructs was then analyzed by HPLC and/or LC/MS. Data analysis included determining the percent of remaining starting material, i.e., undigested peptide construct, and the percent and sequence of each proteolytic fragment.

[3] = rat, in vivo, iv
[4] = human, isolated enzyme neprilysin
[5] = human recombinant NEP (neutral endopeptidase), incubation with human recombinant NEP at 37° C., 1 h, read-out: hNEP % of Starting Material 1 h
[6] = human recombinant NEP (neutral endopeptidase), incubation with human recombinant NEP at 37° C., 2 h, read-out: hNEP % of Starting Material 2 h

Structure (SMILES)	remaining at 1 h, 50 µM [2, 4] [%]	remaining at 2 h, 50 µM [2, 4] [%]	clearance [3] [mL/min/kg]	AUC ([3]; 2 mg/kg) [µM·h]	Vd ([3]; 2 mg/kg) [L/kg]	clearance ([3]; 2 mg/kg) [mL/min/kg]	half-life ([3]; 2 mg/kg) [min]	also measured
CCCCCCC(=O)N[C@H]1CSSC[C@@H](C(=O)N[C@@H](Cc2ccc(O)cc2)C(=O)N2C[C@H](C(N)=O)NC(=O)[C@@H]2CCCNC(=N)N)NC(=O)[C@H](CO)NC(=O)[C@H]([C@@H](C)CC)NC(=O)[C@H](CCCNC(=N)N)NC(=O)[C@H](CC(=O)O)NC(=O)[C@H](CCCC)NC(=O)[C@H](CCCNC(=N)N)NC(=O)CNC(=O)CNC(=O)[C@H](Cc2ccccc2)NC(=O)[C@H](Cc2c[nH]cn2)NC1=O [1-63] (Heptanoyl-CHFGGR[Nle]DRISCY-X1; disulfide 1-12)	67	44	203	0.067	4.6	290	18	AUC [1]: 0.007 µM·h; Cmax [1]: 26 nM; Tmax [1]: 6 min; half-life [1]: 12 min; AUC ([3]; 0.3 mg/kg): 0.033 µM·h; Vd ([3]; 0.3 mg/kg): 5.8 L/kg; clearance ([3]; 0.3 mg/kg): 546 mL/min/kg; half-life ([3]; 0.3 mg/kg): 18 min
CCCC[C@@H]1NC[C@H](C(=O)N[C@H]2CSSC[C@@H](C(=O)N[C@@H](Cc3ccc(O)cc3)C(=O)N3C[C@H](C(N)=O)NC(=O)[C@H]3CCCNC(=N)N)NC(=O)[C@H](CO)NC(=O)[C@H]([C@@H](C)CC)NC(=O)[C@@H](CCCNC(=N)N)NC(=O)[C@H](CC(=O)O)NC(=O)[C@H](CCCC)NC(=O)[C@@H](CCCNC(=N)N)NC(=O)CNC(=O)CNC(=O)[C@H](Cc3ccccc3)NC(=O)[C@H](Cc3c[nH]cn3)NC2=O)NC1=O [1-118] ({Piperazin2one(3S-Bu,6R-CO)}-CHFGG[dR][Nle]D[dR]ISCY-X2; disulfide 1-12)	96	92	10	–	–	–	–	–
CCCC[C@@H]1NC[C@H](C(=O)N[C@H]2CSSC[C@@H](C(=O)N[C@@H](Cc3ccc(O)cc3)C(=O)N3C[C@H](C(N)=O)NC(=O)[C@@H]3CCCNC(=N)N)NC(=O)[C@H](CO)NC(=O)[C@H]([C@@H](C)CC)NC(=O)[C@H](CCCNC(=N)N)NC(=O)[C@@H](CC(=O)O)NC(=O)[C@H](CCCC)NC(=O)[C@H](CCCNC(=N)N)NC(=O)CNC(=O)CNC(=O)[C@H](Cc3ccccc3)NC(=O)[C@H](Cc3c[nH]cn3)NC2=O)NC1=O [1-44] ({Piperazin2one(3S-Bu,6R-CO)}-CHFGGR[Nle][dD]RISCY-X1; disulfide 1-12)	93	86	15	1.54	0.4	15	30	–
CCCC[C@@H]1NC[C@H](C(=O)N[C@H]2CSSC[C@@H](C(=O)N[C@@H](Cc3ccc(O)cc3)C(=O)N3C[C@H](C(N)=O)NC(=O)[C@@H]3CCCNC(=N)N)NC(=O)[C@H](CO)NC(=O)[C@H]([C@@H](C)CC)NC(=O)[C@H](C)NC(=O)[C@H](CC(=O)O)NC(=O)[C@H](CCCC)NC(=O)[C@H](C)NC(=O)CNC(=O)CNC(=O)[C@H](Cc3ccccc3)NC(=O)[C@H](Cc3c[nH]cn3)NC2=O)NC1=O [1-100] ({Piperazin2one(3S-Bu,6R-CO)}-CHFGGA[Nle]DAISCY-X1; disulfide 1-12)	–	–	456	0.042	0.8	456	6	remaining at 1 h, 50 µM [2, 5]: 6%; remaining at 2 h, 50 µM [2, 6]: 0%
CCCC[C@@H]1NC[C@H](C(=O)N[C@H]2CSSC[C@@H](C(=O)N[C@H](Cc3ccc(O)cc3)C(=O)N3C[C@H](C(N)=O)NC(=O)[C@@H]3CCCNC(=N)N)NC(=O)[C@H](CO)NC(=O)[C@H]([C@@H](C)CC)NC(=O)[C@H](CCCNC(=N)N)NC(=O)[C@H](CC(=O)O)NC(=O)[C@H](CCCC)NC(=O)[C@H](CCCNC(=N)N)NC(=O)CNC(=O)CNC(=O)[C@H](Cc3ccccc3)NC(=O)[C@H](Cc3c[nH]cn3)NC2=O)NC1=O [1-53] ({Piperazin2one(3S-Bu,6R-CO)}-CHFGGR[Nle]DRISC[dY]-X1; disulfide 1-12)	87	78	40	–	–	–	–	–
CCCCCCC(=O)N[C@H]1CSSC[C@@H](C(=O)N[C@@H](Cc2ccc(O)cc2)C(=O)N2C[C@H](C(N)=O)NC(=O)[C@@H]2CCCNC(=N)N)NC(=O)[C@H](CO)NC(=O)[C@H]([C@@H](C)CC)NC(=O)[C@H](CCCNC(=N)N)NC(=O)[C@H](CC(=O)O)NC(=O)[C@@H](CCCC)NC(=O)[C@H](CCCNC(=N)N)NC(=O)CNC(=O)CNC(=O)[C@H](Cc2ccccc2)NC(=O)[C@H](Cc2c[nH]cn2)NC1=O [1-131] (Heptanoyl-CHFGGR[dNle]DRISCY-X1; disulfide 1-12)	87	70	21	–	–	–	–	–
CCCC[C@@H]1NC[C@H](C(=O)N[C@H]2CSSC[C@@H](C(=O)N[C@@H](Cc3ccc(O)cc3)C(=O)N3C[C@H](C(N)=O)NC(=O)[C@H]3CCCNC(=N)N)NC(=O)[C@H](CO)NC(=O)[C@H]([C@@H](C)CC)NC(=O)[C@H](CCCNC(=N)N)NC(=O)[C@H](CC(=O)O)NC(=O)[C@@H](CCCC)NC(=O)[C@H](CCCNC(=N)N)NC(=O)CNC(=O)[C@@H](C)NC(=O)[C@H](Cc3ccccc3)NC(=O)[C@H](Cc3c[nH]cn3)NC2=O)NC1=O [1-133] ({Piperazin2one(3S-Bu,6R-CO)}-CHF[dA]GR[dNle]DRISCY-X2; disulfide 1-12)	–	–	12	–	–	–	–	remaining at 1 h, 50 µM [2, 5]: 96%; remaining at 2 h, 50 µM [2, 6]: 93%
CCCCCCC(=O)N[C@H]1CSSC[C@@H](C(=O)N[C@@H](Cc2ccc(O)cc2)C(=O)N2C[C@H](C(N)=O)NC(=O)[C@@H]2CCCNC(=N)N)NC(=O)[C@H](CO)NC(=O)[C@H]([C@@H](C)CC)NC(=O)[C@H](CCCNC(=N)N)NC(=O)[C@H](CC(=O)O)NC(=O)[C@H](CCCC)NC(=O)[C@H](CCCNC(=N)N)NC(=O)CNC(=O)[C@@H](C)NC(=O)[C@H](Cc2ccccc2)NC(=O)[C@H](Cc2c[nH]cn2)NC1=O [1-130] (Heptanoyl-CHF[dA]GR[Nle]DRISCY-X1; disulfide 1-12)	–	–	92	–	–	–	–	remaining at 1 h, 50 µM ([2]; isolated enzyme neprilysin, incubation with human recombinant NEP at 37° C., 1 h, read-out: hNEP % of Starting Material 1 h): 75%; remaining at 2 h, 50 µM ([2]; isolated enzyme neprilysin, incubation with human recombinant NEP at 37° C., 2 h, read-out: hNEP % of Starting Material 2 h): 56%
CCCC[C@@H]1NC[C@H](C(=O)N[C@H]2CSSC[C@@H](C(=O)N[C@@H](Cc3ccc(O)cc3)C(=O)N3C[C@H](C(N)=O)NC(=O)[C@@H]3CCCNC(=N)N)NC(=O)[C@H](CO)NC(=O)[C@H]([C@@H](C)CC)NC(=O)[C@H](CCCNC(=N)N)NC(=O)[C@H](CC(=O)O)NC(=O)[C@H](CCCC)NC(=O)[C@H](CCCN)NC(=O)CNC(=O)CNC(=O)[C@H](Cc3ccccc3)NC(=O)[C@H](Cc3c[nH]cn3)NC2=O)NC1=O [1-54] ({Piperazin2one(3S-Bu,6R-CO)}-CHFGG[Orn][Nle]DRISCY-X1; disulfide 1-12)	–	–	66	0.277	1	66	12	remaining at 1 h, 50 µM [2, 5]: 85%; remaining at 2 h, 50 µM [2, 6]: 82%
CCCC[C@@H]1NC(=O)[C@H](CCCNC(=N)N)NC(=O)CNC(=O)CNC(=O)[C@H](Cc2ccccc2)NC(=O)[C@H](Cc2c[nH]cn2)NC(=O)[C@@H](NC(=O)[C@H]2CN[C@@H](CC(C)C)C(=O)N2)CSSC[C@@H](C(=O)N[C@@H](Cc2ccc(O)cc2)C(=O)N2C[C@H](C(N)=O)NC(=O)[C@@H]2CCCNC(=N)N)NC(=O)[C@H](CO)NC(=O)[C@H]([C@@H](C)CC)NC(=O)[C@H](CCCNC(=N)N)NC(=O)[C@H](CC(=O)O)NC1=O [1-51] (X3-CHFGGR[Nle]DRISCY-X1; disulfide 1-12)	–	–	–	0.19	1	94	12	–
CCCC[C@@H]1NC[C@H](C(=O)N[C@H]2CSSC[C@@H](C(=O)N[C@@H](Cc3ccc(O)cc3)C(=O)N3C[C@H](C(N)=O)NC(=O)[C@@H]3CCCNC(=N)N)NC(=O)[C@H](CO)NC(=O)[C@H]([C@@H](C)CC)NC(=O)[C@H](CCCNC(=N)N)NC(=O)[C@H](CC(=O)O)NC(=O)[C@@H](CCCC)NC(=O)[C@H](CCCNC(=N)N)NC(=O)CNC(=O)CNC(=O)[C@H](Cc3ccccc3)NC(=O)[C@H](Cc3c[nH]cn3)NC2=O)NC1=O [1-43] ({Piperazin2one(3S-Bu,6R-CO)}-CHFGGR[dNle]DRISCY-X1; disulfide 1-12)	97	92	14	1.25	0.6	14	42	–
CCCC[C@@H]1NC[C@H](C(=O)N[C@H]2CSSC[C@@H](C(=O)N[C@@H](Cc3ccc(O)cc3)C(=O)N3C[C@H](C(N)=O)NC(=O)[C@@H]3CCCNC(=N)N)NC(=O)[C@H](C)NC(=O)[C@H]([C@@H](C)CC)NC(=O)[C@H](CCCNC(=N)N)NC(=O)[C@H](CC(=O)O)NC(=O)[C@H](CCCC)NC(=O)[C@H](CCCNC(=N)N)NC(=O)CNC(=O)CNC(=O)[C@H](Cc3ccccc3)NC(=O)[C@H](C)NC2=O)NC1=O [1-69] ({Piperazin2one(3S-Bu,6R-CO)}-CAFGGR[Nle]DRIACY-X1; disulfide 1-12)	–	–	–	0.113	0.8	168	6	–
